Source: patent US20240293413A1, “COMPOUND AND METHOD FOR TREATING CHEMOTHERAPY-RELATED GASTROINTESTINAL SIDE EFFECTS” (ONQUALITY PHARMACEUTICALS CHINA LTD., priority 2021, published 2024)

Key:
Type in all cases: in vivo
[1] = test system: diarrhea caused by a chemotherapeutic agent in Balb/c mice; test: Examples 230-271 (Table 4): oral CDK inhibitor, relief of diarrhea caused by a chemotherapeutic agent
Procedure, shortened: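 Balb/c mice, 10 per group (vehicle, chemotherapeutic agent, CDK inhibitor plus chemotherapeutic); CDK inhibitor dosed intragastrically before the chemotherapeutic agent by injection or gavage. Diarrhea graded daily.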

[2] = test system: diarrhea caused by a chemotherapeutic agent in Balb/c mice; test: Examples 382-405 (Table 7): various administration modes of the CDK inhibitor, relief of diarrhea caused by a chemotherapeutic agent
Source text: Balb/c mice were fed for 1 week, and then divided into groups. The experiment was divided into a control group, a chemotherapeutic agent group, CDK inhibitor groups (including an oral administration group of a CDK inhibitor, an intraperitoneal injection group of a CDK inhibitor, an intramuscular injection group of a CDK inhibitor, a local administration group of a CDK inhibitor), each of which comprised 10 mice, to perform the administration experiment, for which the administration dosage, mode, time and frequency were shown in Table 7. The control group: being administered with the same solvent as that used in the CDK inhibitor group (the time and mode were shown in Table 7), and then being injected/intragastrically administered with the same solvent as that used in the chemotherapeutic agent group (the administration mode was shown in Table 7): the chemotherapeutic agent group: being administered with the same solvent as that used in the CDK inhibitor group (the time and mode were shown in Table 7), and then being injected/intragastrically administered with the chemotherapeutic agent (the type, administration mode and dosage were shown in Table 7): the oral administration group of the CDK inhibitor: being intragastrically administered with the CDK inhibitor (the time was shown in Table 7), and then being administered with the chemotherapeutic agent (the mode and dosage were shown in Table 7): the intraperitoneal injection group of the CDK inhibitor: being intraperitoneally injected with the CDK inhibitor (the time was shown in Table 7), and then being administered with the chemotherapeutic agent (the mode and dosage were shown in Table 7): the intramuscular injection group of the CDK inhibitor: being intramuscularly injected with the CDK inhibitor (the time was shown in Table 7), and then being administered with the chemotherapeutic agent (the mode and dosage were shown in Table 7); and the local administration group of the CDK inhibitor: the hair on the abdomen of mice was shaved (about 2 cm*2 cm), being applied with the CDK inhibitor (the time was shown in Table 7), and then being administered with the chemotherapeutic agent (the mode and dosage were shown in Table 7).
The diarrhea grading of mice was observed and recorded every day.

[3] = test system: Chemotherapeutic agent-caused diarrhea models of Balb/c mice; test: Examples 1-229 (Table 3): oral CDK inhibitor, relief of diarrhea caused by a chemotherapeutic agent;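 further: percent of treated mice whose diarrhea grade fell below chemotherapy-group average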

CN(C)C(=O)c1cc2cnc(Nc3ccc(N4CCNCC4)cn3)nc2n1C1CCCC1 [Ribociclib]
Relative remission rate ([1]; Example 243, Methotrexate (MTX) intravenous injection 300 mg/kg single, CDK inhibitor oral 125 mg/kg single, 0.5 h before, cycle 7 days): 80% | Relative remission rate ([1]; Example 244, Methotrexate (MTX) intravenous injection 300 mg/kg single, CDK inhibitor oral 125 mg/kg single, 4 h before, cycle 7 days): 60% | Relative remission rate ([1]; Example 245, Methotrexate (MTX) intravenous injection 300 mg/kg single, CDK inhibitor oral 125 mg/kg single, 8 h before, cycle 7 days): 80% | Relative remission rate ([1]; Example 246, Methotrexate (MTX) intravenous injection 300 mg/kg single, CDK inhibitor oral 125 mg/kg single, 12 h before, cycle 7 days): 40% | Relative remission rate ([1]; Example 247, Methotrexate (MTX) intravenous injection 300 mg/kg single, CDK inhibitor oral 125 mg/kg single, 24 h before, cycle 7 days): 60% | Relative remission rate ([1]; Example 248, Methotrexate (MTX) intravenous injection 300 mg/kg single, CDK inhibitor oral 125 mg/kg single, 48 h before, cycle 7 days): 0% | Relative remission rate ([1]; Example 251, Methotrexate (MTX) intraperitoneal injection 260 mg/kg single, CDK inhibitor oral 200 mg/kg single, 12 h before, cycle 7 days): 50% | Relative remission rate ([1]; Example 252, Methotrexate (MTX) intraperitoneal injection 260 mg/kg single, CDK inhibitor oral 200 mg/kg single, 48 h before, cycle 7 days): 0% | Relative remission rate ([1]; Example 269, Vinorelbine (NVB) oral administration 15 mg/kg single, CDK inhibitor oral 100 mg/kg single, 24 h before, cycle 11 days): 50% | Relative remission rate of other administration mode ([2]; Example 389, Carboplatin (CBP) intraperitoneal injection 120 mg/kg single, CDK inhibitor intraperitoneal injection 200 mg/kg single, 0.5 h before, cycle 10 days): 10% | Relative remission rate of oral administration ([2]; Example 389, Carboplatin (CBP) intraperitoneal injection 120 mg/kg single, CDK inhibitor oral 200 mg/kg single, 0.5 h before, cycle 10 days): 30% | Relative remission rate of other administration mode ([2]; Example 390, Carboplatin (CBP) intraperitoneal injection 120 mg/kg single, CDK inhibitor intraperitoneal injection 200 mg/kg single, 4 h before, cycle 10 days): 10% | Relative remission rate of oral administration ([2]; Example 390, Carboplatin (CBP) intraperitoneal injection 120 mg/kg single, CDK inhibitor oral 200 mg/kg single, 4 h before, cycle 10 days): 50% | Relative remission rate of other administration mode ([2]; Example 391, Carboplatin (CBP) intraperitoneal injection 120 mg/kg single, CDK inhibitor intraperitoneal injection 200 mg/kg single, 8 h before, cycle 10 days): 10% | Relative remission rate of oral administration ([2]; Example 391, Carboplatin (CBP) intraperitoneal injection 120 mg/kg single, CDK inhibitor oral 200 mg/kg single, 8 h before, cycle 10 days): 50% | Relative remission rate of other administration mode ([2]; Example 392, Carboplatin (CBP) intraperitoneal injection 120 mg/kg single, CDK inhibitor intraperitoneal injection 200 mg/kg single, 12 h before, cycle 10 days): 20% | Relative remission rate of oral administration ([2]; Example 392, Carboplatin (CBP) intraperitoneal injection 120 mg/kg single, CDK inhibitor oral 200 mg/kg single, 12 h before, cycle 10 days): 40% | Relative remission rate of other administration mode ([2]; Example 393, Carboplatin (CBP) intraperitoneal injection 120 mg/kg single, CDK inhibitor intraperitoneal injection 200 mg/kg single, 24 h before, cycle 10 days): 10% | Relative remission rate of oral administration ([2]; Example 393, Carboplatin (CBP) intraperitoneal injection 120 mg/kg single, CDK inhibitor oral 200 mg/kg single, 24 h before, cycle 10 days): 40% | Relative remission rate of other administration mode ([2]; Example 401, Gemcitabine (GEM) oral administration 300 mg/kg single, CDK inhibitor local administration 100 mg/kg single, 24 h before, cycle 8 days): 20% | Relative remission rate of oral administration ([2]; Example 401, Gemcitabine (GEM) oral administration 300 mg/kg single, CDK inhibitor oral 100 mg/kg single, 24 h before, cycle 8 days): 50% | relief of diarrhea by oral, injection and local administration ([2]; diarrhea caused by docetaxel, carboplatin, gemcitabine, and gemcitabine plus carboplatin, under certain conditions, effect of oral administration most significant): can relieve diarrhea | Relative remission rate (%) ([3]; Example 45, Fluorouracil (5-Fu) intravenous injection 175 mg/kg single, CDK inhibitor oral 200 mg/kg single 0.5 h before, cycle 8 days): 40% | Relative remission rate (%) ([3]; Example 113, Irinotecan (CPT-11) oral administration 300 mg/kg single, CDK inhibitor oral 100 mg/kg single 24 h before, cycle 11 days): 60% | Relative remission rate (%) ([3]; Example 167, Docetaxel (DTX) intravenous injection 10 mg/kg single, CDK inhibitor oral 200 mg/kg single 9 h before, cycle 8 days): 80% | Relative remission rate (%) ([3]; Example 229, Etoposide 60 mg/kg and carboplatin 5 mg/kg intraperitoneal injection single, CDK inhibitor oral 200 mg/kg single, 12 h before, 10 days): 50%
